Experimental data published in patent US7608626B2, “Substituted indolizines and derivatives as CNS agents” (Wyeth, priority 2004, dated 2009).
Structures can show the parent of a compound that is named as a salt. Where two headings read alike, the source gives them in different places.

Columns and labels:
[1] = molecular target: T1, human 5-hydroxytryptamine-2C (h-5-HT2C) receptor (Homo sapiens, UniProt P28335); assay: [125I]DOI binding to membranes of CHO cells expressing h-5-HT2C receptor
T1 construct: expressed in transfected cells; host or cells: Chinese Hamster Ovary (CHO) cells; membrane preparation
T1 sequence (P28335 33-458): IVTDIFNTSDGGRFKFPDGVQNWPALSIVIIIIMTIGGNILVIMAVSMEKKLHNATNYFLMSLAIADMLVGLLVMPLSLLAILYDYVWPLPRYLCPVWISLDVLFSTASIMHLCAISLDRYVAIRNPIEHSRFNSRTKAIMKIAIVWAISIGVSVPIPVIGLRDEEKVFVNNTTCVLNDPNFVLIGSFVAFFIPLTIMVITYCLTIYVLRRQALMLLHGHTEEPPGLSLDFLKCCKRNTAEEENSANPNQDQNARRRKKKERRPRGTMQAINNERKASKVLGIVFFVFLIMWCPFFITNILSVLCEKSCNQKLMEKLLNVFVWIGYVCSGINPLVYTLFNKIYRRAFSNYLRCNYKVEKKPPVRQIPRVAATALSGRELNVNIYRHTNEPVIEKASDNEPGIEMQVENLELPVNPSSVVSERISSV

human 5-HT2C receptor = molecular target: T2, human 5-HT2C receptor (Homo sapiens, UniProt P28335); assay: 5-HT2C receptor-stimulated calcium mobilization (FLIPR) in CHO cells; assay type: cell-based; conditions: for Emax: CHO, read-out: 5-HT2C Function Emax (%); for EC50: calcium mobilization, CHO cells, read-out: 5-HT2C Function EC50
T2 construct: expressed in transfected cells
T2 sequence (P28335 33-458): T1 sequence (P28335 33-458)

Ki ([1]; read-out: 5-HT2C Affinity Ki) [nM]	Structure (SMILES)	melting point	other results
	CCc1c(-c2ccccc2)c(CCN)c2ccccn12 (as salt: fumaric acid salt) [Example 2, 2-(3-ethyl-2-phenylindolizin-1-yl)ethylamine]	173 to 176 °C	
	CCCc1c(-c2ccccc2)c(CCN)c2ccccn12 (as salt: fumaric acid salt) [Example 3, 2-(2-phenyl-3-propylindolizin-1-yl)ethylamine]	169 to 172 °C	
	CCc1cn2ccccc2c1CCN (as salt: fumaric acid salt) [Example 4, 2-(2-ethylindolizin-1-yl)ethylamine]	170 to 175 °C (dec.)	
	CCc1c(CCN)c2ccccn2c1CC (as salt: fumaric acid salt) [Example 5, 2-(2,3-diethylindolizin-1-yl)ethylamine]	166 to 171 °C	
	CCNCCc1c(CC)c(CC)n2ccccc12 (as salt: fumaric acid salt) [Example 6, N-[2-(2,3-diethylindolizin-1-yl)ethyl]-N-ethylamine]	154 to 158 °C	
	CCCc1c(CC)c(CCN)c2ccccn12 (as salt: fumaric acid salt) [Example 7, 2-(2-ethyl-3-propylindolizin-1-yl)ethylamine]	154 to 158 °C	
	CCCc1c(CC)c(CC(C)N)c2ccccn12 (stereo not drawn) (as salt: fumaric acid salt) [Example 9, 2-(2-ethyl-3-propylindolizin-1-yl)-1-methylethylamine]	184 to 186 °C	
	CCCc1c(C)c(CC(C)N)c2ccccn12 (stereo not drawn) (as salt: fumaric acid salt) [Example 10, 1-(2-methyl-3-propylindolizin-1-yl)propan-2-amine]	147 to 150 °C	
272	NCCc1c(-c2ccccc2)cn2ccccc12 [Example 1, 2-(2-phenylindolizin-1-yl)ethylamine]		
117	CCc1c(-c2ccccc2)c(CCN)c2ccccn12 [Example 2, 2-(3-ethyl-2-phenylindolizin-1-yl)ethylamine]		
54	CCCc1c(-c2ccccc2)c(CCN)c2ccccn12 [Example 3, 2-(2-phenyl-3-propylindolizin-1-yl)ethylamine]		
	CCc1cn2ccccc2c1CCN [Example 4, 2-(2-ethylindolizin-1-yl)ethylamine]		Ki [1]: 121 nM
	CCc1c(CCN)c2ccccn2c1CC [Example 5, 2-(2,3-diethylindolizin-1-yl)ethylamine]		Ki [1]: 35 nM; Emax (human 5-HT2C receptor): 80%; EC50 (human 5-HT2C receptor): 11 nM
	CCCc1c(CC)c(CCN)c2ccccn12 [Example 7, 2-(2-ethyl-3-propylindolizin-1-yl)ethylamine]		Ki [1]: 21 nM; Emax (human 5-HT2C receptor): 100%; EC50 (human 5-HT2C receptor): 19 nM
208	CCCNCCc1c(CC)c(CCC)n2ccccc12 [Example 8]		
	CCCc1c(C)c(CC(C)N)c2ccccn12 (stereo not drawn) [Example 10, 1-(2-methyl-3-propylindolizin-1-yl)propan-2-amine]		Ki [1]: 17 nM; Emax (human 5-HT2C receptor): 90%; EC50 (human 5-HT2C receptor): 46 nM
	NCCc1c2c(n3ccccc13)CCCC2 [Example 12, 2-(1,2,3,4-tetrahydropyrido[1,2-a]indol-10-yl)ethylamine]		Ki [1]: 98 nM
	CSc1ccc2c(c1)C(N1CCN(C)CC1)Cc1ccccc1S2 (stereo not drawn) [Methiothepin, reference compound]		Ki ([1]; reference compounds, [125I]DOI radioligand, CHO cell membranes, read-out: Ki (95% confidence interval)): 4.6 nM

Structure (SMILES)	Ki ([1]; read-out: 5-HT2C Affinity Ki) [nM]	melting point	other results
CCNCCc1c(CC)c(CC)n2ccccc12 [Example 6, N-[2-(2,3-diethylindolizin-1-yl)ethyl]-N-ethylamine]	228		
CCCc1c(CC)c(CC(C)N)c2ccccn12 (stereo not drawn) [Example 9, 2-(2-ethyl-3-propylindolizin-1-yl)-1-methylethylamine]	124		
CCCc1c(C)c(CC(N)CC)c2ccccn12 (stereo not drawn) [Example 11, 1-(2-methyl-3-propylindolizin-1-yl)butan-2-amine]	457		
